Patent US20230348362A1, “LIPID COMPOUNDS AND LIPID NANOPARTICLE COMPOSITIONS” (Suzhou Abogen Biosciences Co., Ltd., priority 2021, published 2023)

What was measured:
Type in all cases: physicochemical
[1] = Lipid nanoparticle size and polydispersity by dynamic light scattering; conditions: LNP of lipid/DSPC/cholesterol/PEG-lipid 50:10:38.5:1.5 encapsulating hEPO mRNA
Outline: (§1)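 LNPs made from ionizable lipid/DSPC/cholesterol/PEG-lipid (50:10:38.5:1.5) and mRNA in citrate pH 4 by microfluidic mixing, lipid:mRNA about 10:1–30:1 w/w, then dialysed into DPBS and filtered. Size and PDI measured by DLS in backscatter mode; encapsulation efficiency measured by RiboGreen assay.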

[2] = Apparent pKa of LNP formulations, TNS fluorescence assay; conditions: LNP cationic lipid/DSPC/cholesterol/DMG-PEG 50/10/38.5/1.5 mol %
Outline: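 LNPs (cationic lipid/DSPC/cholesterol/DMG-PEG 50/10/38.5/1.5 mol %) diluted to 0.1 mg/mL total lipid in citrate/phosphate/borate/NaCl buffers spanning pH 3–9 with TNS. Fluorescence (ex 325, em 435 nm) read at room temperature; pKa taken as the pH at half-maximal intensity from sigmoidal fit.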

[3] = Encapsulation efficiency of lipid nanoparticles, Quant-it Ribogreen RNA assay; conditions: LNP of lipid/DSPC/cholesterol/PEG-lipid 50:10:38.5:1.5 encapsulating hEPO mRNA
Outline: as §1

polydispersity [1] | size (nm) [1] [nm] | Apparent Pka [2] | Encapsulation Efficiency [3] [%] | Structure (SMILES)
0.042 | 84.07 | 6.293 | 93.11 | CCCCCCCCC(CCCCCCCC)COC(=O)CCCCCN(CCN(CCO)CCOCCC(=O)OCC(CCCCCCCC)CCCCCCCC)C1CCC1 [Compound 110]
0.069 | 76.24 | 6.108 | 92.05 | CCCCCCCCC(CCCCCCCC)COC(=O)CCCCCN(CCN(CCO)CCOCCC(=O)OCC(CCCCCCCC)CCCCCCCC)C1CCCCC1 [Compound 111]
0.121 | 57.96 | 6.044 | 94.10 | CCCCCCCCC(CCCCCCCC)COC(=O)CCCCCN(CCO)CCN(CCCCCC(=O)OCC(CCCCCCCC)CCCCCCCC)CCC(C)C [Compound 118]
0.043 | 75.42 | 6.546 | 94.33 | CCCCCCCCC(CCCCCCCC)COC(=O)CCOCCN(CC=C(C)C)CCN(CCO)CCOCCC(=O)OCC(CCCCCCCC)CCCCCCCC [Compound 120]
0.077 | 70.01 | 6.583 | 93.23 | CCCCCCCCC(CCCCCCCC)CNC(=O)CCCCCN(CC=C(C)C)CCN(CCO)CCCCCC(=O)OCC(CCCCCCCC)CCCCCCCC [Compound 121]
0.066 | 65.77 | 6.817 | 93.47 | CCCCCCCCC(CCCCCCCC)CNC(=O)CCCCCN(CC=C(C)C)CCN(CCO)CCCCCC(=O)NCC(CCCCCCCC)CCCCCCCC [Compound 122]
0.152 | 59.28 | 6.336 | 94.58 | CCCCCCCCC(CCCCCCCC)COC(=O)CCCCCN(CCO)CCN(CC=C(C)C)CCOCCC(=O)OCC(CCCCCCCC)CCCCCCCC [Compound 123]
0.111 | 59.55 | 5.997 | 94.60 | CCCCCCCCC(CCCCCCCC)COC(=O)CCCCCN(CCO)CCN(CCCCC)CCCCCC(=O)OCC(CCCCCCCC)CCCCCCCC [Compound 124]
0.047 | 61.57 | 6.212 | 92.26 | CCCCCCCCC(CCCCCCCC)COC(=O)CCCCCN(CC=C(C)C)CCN(CCCCCC(=O)OCC(CCCCCCCC)CCCCCCCC)C1CCC(O)CC1 (stereo not shown) [Compound 126]
0.090 | 69.05 | 6.226 | 91.77 | CCCCCCCCC(CCCCCCCC)COC(=O)CCCCCN(CCO)CCN(CCCCCOC(=O)N(CCCCCCCC)CCCCCCCC)C1CCCCC1 [Compound 127]
0.267 | 74.57 | 5.990 | 94.56 | CCCCCCCCC(CCCCCCCC)COC(=O)CCCCCN(CCO)CCN(CCCCCOC(=O)OCC(CCCCCCCC)CCCCCCCC)C1CCCCC1 [Compound 133]
0.040 | 84.74 | 6.831 | 88.64 | CCCCCCCCC(CCCCCC)CNC(=O)CCCCCN(CCO)CCN(CCCCC(COC(=O)CCCCCCC)COC(=O)CCCCCCC)C1CCC1 (stereo not shown) [Compound 136]
0.057 | 69.16 | 6.687 | 90.39 | CCCCCCCCC(CCCCCC)CNC(=O)CCCCCN(CCO)CCN(CCCCC(COC(=O)CCCCCCC)COC(=O)CCCCCCC)C1CCCCCC1 (stereo not shown) [Compound 143]
0.076 | 76.37 | 6.586 | 91.34 | CCCCCCCCC(CCCCCC)CNC(=O)CCCCCN(CC=C(C)C)CCN(CCO)CCCCC1COC(C(CCCCCC)CCCCCCCC)OC1 (stereo not shown) [Compound 150]
0.064 | 61.84 | 6.368 | 92.43 | CCCCCCCCC(CCCCCC)COC(=O)CCCCCN(CC=C(C)C)CCN(CCO)CCCCC1COC(C(CCCCCC)CCCCCCCC)OC1 (stereo not shown) [Compound 151]
0.048 | 73.95 | 6.437 | 93.09 | CCCCCCCCC(CCCCCCCC)COC(=O)OCCCCCN(CCO)CCN(CCCCCNC(=O)CC(CCCCCC)CCCCCCCC)C1CCCCCC1 (stereo not shown) [Compound 153]
0.101 | 56.95 | 6.061 | 87.11 | CCCCCCCCC(CCCCCC)COC(=O)CCCCCN(CCO)CCN(CCCCC(COC(=O)CCCCCCC)COC(=O)CCCCCCC)C1CC1 (stereo not shown) [Compound 154]
0.071 | 70.67 | 6.28 | 89.57 | CCCCCCCCC(CCCCCC)CNC(=O)CCCCCN(CCO)CCN(CCCCC(COC(=O)CCCCCCC)COC(=O)CCCCCCC)C1CC1 (stereo not shown) [Compound 155]
0.112 | 88.09 | 6.674 | 95.04 | CCCCCCCCC(CCCCCC)COC(=O)CCCCCN(CC)CCN(CCO)CCCCC(COC(=O)CCCCCCC)COC(=O)CCCCCCC (stereo not shown) [Compound 157]

The next lines start with the compound.

Structure (SMILES) | polydispersity [1] | size (nm) [1] [nm] | Apparent Pka [2] | Encapsulation Efficiency [3] [%]
CCCCCCCCCCCOC(=O)CCCCCN(CCN(CCO)CCCCCC(=O)OCC(CCCCCCCC)CCCCCCCC)C1CCCCCC1 [Compound 107] | 0.121 | 55.62 | 6.411 | 93.22
CCCCCCCC/C=C\CCCCCCCC(=O)OCCCCCN(CCN(CCO)CCCCCC(=O)OCC(CCCCCCCC)CCCCCCCC)C1CCCCC1 [Compound 109] | 0.032 | 78.27 | 6.348 | 92.54
CCCCCCCCC(CCCCCCCC)COC(=O)CCOCCN(CCO)CCN(CCOCCC(=O)OCC(CCCCCCCC)CCCCCCCC)C1CCC1 [Compound 112] | 0.059 | 77.33 | 6.343 | 93.15
CCCCCCCCC(CCCCCCCC)COC(=O)CCOCCN(CCO)CCN(CCOCCC(=O)OCC(CCCCCCCC)CCCCCCCC)C1CCCCC1 [Compound 113] | 0.012 | 89.42 | 6.364 | 92.93
CCCCCCCCCCCOC(=O)CCOCCN(CCN(CCO)CCOCCC(=O)OCC(CCCCCCCC)CCCCCCCC)C1CCC1 [Compound 116] | 0.102 | 77.45 | 6.826 | 87.45
CCCCCCCCCCCOC(=O)CCCCCN(CCN(CCO)CCCCCOC(=O)OCC(CCCCCCCC)CCCCCCCC)C1CCCCC1 [Compound 128] | 0.093 | 60.57 | 6.539 | 92.31
CCCCCCCCCCCCCCCCOC(=O)CCCCCN(CCN(CCO)CCCCCC(=O)OCC(CCCCCCCC)CCCCCCCC)C1CCCCCCC1 [Compound 131] | 0.121 | 56.62 | 6.255 | 92.18
CCCCCCCCC(CCCCCC)COC(=O)CCCCCN(CCO)CCN(CCCCC(COC(=O)CCCCCCC)COC(=O)CCCCCCC)C1CCCC1 (stereo not shown) [Compound 137] | 0.040 | 67.32 | 6.494 | 89.36
CCCCCCCC(=O)OCC(CCCCN(CCO)CCN(CCCCC(COC(=O)CCCCCCC)COC(=O)CCCCCCC)C1CCCCC1)COC(=O)CCCCCCC [Compound 141] | 0.128 | 63.69 | 6.475 | 88.11
CCCCCCCCC(CCCCCC)COC(=O)CCCCCN(CCO)CCN(CCCCC(COC(=O)CCCCCCC)COC(=O)CCCCCCC)C1CCCCCC1 (stereo not shown) [Compound 142] | 0.055 | 71.85 | 6.218 | 87.29
CCCCCCCCC(CCCCCC)COC(=O)CCCCCN(CCO)CCN(CCCCC(COC(=O)CCCCCCC)COC(=O)CCCCCCC)C1CCCCCCC1 (stereo not shown) [Compound 144] | 0.099 | 68.28 | 6.182 | 84.58
CCCCCCCCC(CCCCCC)CC(=O)OCCCCCN(CCO)CCN(CCCCCN(C)C(=O)CC(CCCCCC)CCCCCCCC)C1CCCCCC1 (stereo not shown) [Compound 147] | 0.058 | 85.76 | 6.62 | 88.17
CCCCCCCC/C=C\CCCCCCCC(=O)OCCCCCN(CCO)CCN(CCCCCNC(=O)CC(CCCCCC)CCCCCCCC)C1CCCCCC1 (stereo not shown) [Compound 152] | 0.031 | 83.28 | 6.646 | 91.68
CCCCCCCC(=O)OCC(CCCCN(CCO)CCN(CCCCC(COC(=O)CCCCCCC)COC(=O)CCCCCCC)C1CCCCCCC1)COC(=O)CCCCCCC [Compound 161] | 0.090 | 72.08 | 6.02 | 87.54
CCCCCCC(=O)OCC(CCCCN(CCO)CCN(CCCCC(COC(=O)CCCCCC)COC(=O)CCCCCC)C1CCC1)COC(=O)CCCCCC [Compound 165] | 0.125 | 131.30 | 6.183 | 75.66
